Assay results taken from patent publication US9610322B2, “Macrocyclic insulin-degrading enzyme (IDE) inhibitors and uses thereof” (President and Fellows of Harvard College, priority 2011, dated 2017).

How the values were obtained:
[1] = previous indications; cited from earlier work
recombinant human IDE = recombinant human IDE (Homo sapiens (Human), UniProt P14735); experiment: IDE protease assay, cleavage of fluorophore-quencher substrate peptide; assay type: biochemical; conditions: for stronger potency of trans-olefin isomer than corresponding cis-olefin isomer: trans vs cis olefin
Chain of recombinant human IDE (P14735 whole entry): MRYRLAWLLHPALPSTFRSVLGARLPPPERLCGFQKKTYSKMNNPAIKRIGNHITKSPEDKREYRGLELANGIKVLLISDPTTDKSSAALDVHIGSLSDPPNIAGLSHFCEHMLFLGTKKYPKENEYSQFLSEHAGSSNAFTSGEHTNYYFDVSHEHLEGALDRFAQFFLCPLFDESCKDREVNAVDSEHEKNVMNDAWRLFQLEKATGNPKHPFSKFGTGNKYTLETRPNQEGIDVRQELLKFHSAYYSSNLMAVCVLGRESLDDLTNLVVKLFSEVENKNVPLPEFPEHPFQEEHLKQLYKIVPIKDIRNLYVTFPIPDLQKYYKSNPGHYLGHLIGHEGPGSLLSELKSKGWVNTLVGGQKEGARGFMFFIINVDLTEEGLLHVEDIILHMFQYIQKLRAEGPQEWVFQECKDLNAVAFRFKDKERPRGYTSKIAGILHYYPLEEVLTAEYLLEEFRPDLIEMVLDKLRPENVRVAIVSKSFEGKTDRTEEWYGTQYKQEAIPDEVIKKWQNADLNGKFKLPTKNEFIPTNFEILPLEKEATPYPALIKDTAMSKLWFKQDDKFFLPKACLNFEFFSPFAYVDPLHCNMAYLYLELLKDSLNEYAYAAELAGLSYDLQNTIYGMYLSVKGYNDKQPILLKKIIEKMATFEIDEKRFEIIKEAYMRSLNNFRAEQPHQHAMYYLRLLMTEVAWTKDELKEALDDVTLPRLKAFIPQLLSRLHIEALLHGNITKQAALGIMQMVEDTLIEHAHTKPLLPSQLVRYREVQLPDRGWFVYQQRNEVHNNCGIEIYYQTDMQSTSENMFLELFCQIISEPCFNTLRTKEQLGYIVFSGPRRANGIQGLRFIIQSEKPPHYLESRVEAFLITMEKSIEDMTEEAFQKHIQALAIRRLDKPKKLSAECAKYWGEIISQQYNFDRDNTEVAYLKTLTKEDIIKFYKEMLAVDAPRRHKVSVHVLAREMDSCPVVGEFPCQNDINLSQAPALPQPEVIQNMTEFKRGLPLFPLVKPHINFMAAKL
Procedure: In vitro protease assays: Protease assays with IDE and neprilysin were performed using Mca-RPPGFSAFK(Dnp)-OH substrate peptide (R&D Systems, SEQ ID NO: 6) and purified recombinant human IDE and recombinant human neprilysin (R&D Systems) according to the manufacturer's instructions. For IDE, 2 μL of small molecule dissolved in DMSO was combined with 48 μL, 0.2 μg/mL IDE in IDE assay buffer (50 mM Tris, 1 M NaCl, pH 7.5). 50 μL, of 20 μM substrate peptide in IDE assay buffer was then added to initiate the reaction, and peptide cleavage was monitored on a fluorescent plate reader (excitation=320 nm; emission=405 nm) for 5 minutes. The above protocol was also used for assaying neprilysin activity, substituting the neprilysin assay buffer (50 mM Tris, 0.05% Brij-35, pH 9.0).
Compounds were synthesized as described previously;^9 in most cases the macrocycle synthesis yielded two isomers corresponding to the cis and trans olefins generated after macrocyclization. Macrocycles were assayed for IDE inhibition by monitoring cleavage of a substrate peptide^13 containing a fluorophore-quencher pair such that cleavage of the model substrate results in increased fluorescence.

[2] = Biodistribution assay after IP injection, LC-MS of organ extracts; assay type: in vivo, mouse; conditions: mice, intraperitoneal injection, 45 minutes
Procedure: Macrocycles were diluted to 0.1 mg/mL or 1 mg/mL in PBS and IP-injected into a mouse to produce a concentration of 1 mg/kg or 10 mg/kg, respectively. After 45 minutes, organs were harvested, and the small-molecule fractions were extracted into a 2:1:1 mixture of chloroform:methanol:water. Samples were evaporated under a stream of nitrogen, resuspended in 100 μL of chloroform and subjected to LC-MS analysis.
The tissue distribution of enriched macrocycles after i.p. injection was examined. […] Briefly, compounds were injected at different concentrations intraperitoneally into mice, and plasma, brain, and pancreas were harvested after 45 minutes. Vehicle-only injections were performed as negative controls. We determined the relative amount of macrocycle present by extracting the organs with organic solvents and quantifying the amount of compound present by LC-MS analysis.

plasma IDE activity = experiment: Plasma IDE activity in mice injected with inhibitor; assay type: in vivo
Procedure: Finally, we compared plasma IDE activity in mice injected with 6b with plasma IDE activity in control mice injected with vehicle alone (18:1:1, saline:DMSO:Tween-80). Plasma IDE activity 60 min after 10 mg/kg, 20 mg/kg, or 40 mg/kg i.p. injection of 6b was inhibited by ≧90% (FIG. 9).

[3] = Preliminary pharmacokinetics after i.p. injection, LC-MS quantitation; conditions: mice

Q: Which “stability under physiological conditions” value [1] does the source give for `N=C(N)NCCC[C@H](NC(=O)[C@@H](CC(=O)NO)Cc1ccc2ccccc2c1)C(=O)N[C@@H](Cc1c[nH]c2ccccc12)C(=O)N[C@@H](CCC(=O)O)C(N)=O` [Ii1] here?
A: not sufficiently stable under physiological conditions

Q: For `NC(=O)C1CCCCNC(=O)C(Cc2ccc(C(=O)c3ccccc3)cc2)NC(=O)C(CC2CCCCC2)NC(=O)C(CC2CC2)NC(=O)C=CC(=O)N1` (mixture of isomers) [Compound 5], which “stronger potency of trans-olefin isomer than corresponding cis-olefin isomer” value (“stronger potency” below) (recombinant human IDE) is on record?
A: > 10 fold

Q: For `NC(=O)CCC1NC(=O)C=CC(=O)NC(C(N)=O)CCCCNC(=O)C(Cc2ccc(C(=O)c3ccccc3)cc2)NC(=O)C(CC2CCCCC2)NC1=O` (mixture of isomers) [Compound 6], which “stronger potency” value (recombinant human IDE) is on record?
A: > 10 fold

Q: Which “effect of modification on IDE inhibitor potency relative to 6b, in words” value (recombinant human IDE; derivatives of 6b) does the source give for `NCCCC[C@@H]1NC(=O)/C=C/C(=O)NC(C(N)=O)CCCCNC(=O)[C@@H](Cc2ccc(C(=O)c3ccccc3)cc2)NC(=O)[C@H](CC2CCCCC2)NC1=O` (stereo partly shown) [Compound 20] here?
A: equipotent

Q: Which detection in brain [2] does the source give for `NC(=O)CCC1NC(=O)C=CC(=O)NC(C(N)=O)CCCCNC(=O)C(Cc2ccc(C(=O)c3ccccc3)cc2)NC(=O)C(CC2CCCCC2)NC1=O` (stereo not shown) [Compound 6b] here?
A: none of the three compounds could be detected in the brain

Q: And the detection in pancreas [2]?
A: could be detected

Q: And the detection in plasma [2]?
A: could be detected

Q: What about the “macrocycle concentrations in the plasma compared among compounds” value [2] of the same compound?
A: comparable

Q: What about the “inhibition of plasma IDE activity” value (plasma IDE activity; 60 min after 10 mg/kg i.p.) of the same compound?
A: ≥ 90%

Q: What about the “inhibition of plasma IDE activity” value (plasma IDE activity; 60 min after 20 mg/kg i.p.) of the same compound?
A: ≥ 90%

Q: What about the “inhibition of plasma IDE activity” value (plasma IDE activity; 60 min after 40 mg/kg i.p.) of the same compound?
A: ≥ 90%

Q: What about the peak blood concentration ([3]; i.p. 20 mg/kg) of the same compound?
A: 0.2 µM

Q: And the “time of peak blood concentration” value ([3]; i.p. 20 mg/kg)?
A: 60 min

Q: And the tolerability of injections ([3]; i.p. 20 mg/kg in 18:1:1 saline:DMSO:Tween-80)?
A: well tolerated

Q: For `NC(=O)C1CCCCNC(=O)C(Cc2ccc(C(=O)c3ccccc3)cc2)NC(=O)C(CC2CCCCC2)NC(=O)CC(O)C(CC2CCCCC2)NC(=O)C=CC(=O)N1` (mixture of isomers) [Compound 3], which “stronger potency” value (recombinant human IDE) is on record?
A: > 10 fold

Q: For `NC(=O)CCC1NC(=O)C=CC(=O)NC(C(N)=O)CCCCNC(=O)CNC(=O)C(CC2CCCCC2)NC1=O` (stereo not shown) [Compound 1], which “activity against IDE in words” value (recombinant human IDE) is on record?
A: inactive
